Read-outs that look alike come from different tables or passages of the source.
Legend:
[1] = biological target: T1, cCaSR (Felis catus, UniProt C7FF08)
T1 sequence (C7FF08 1-1081): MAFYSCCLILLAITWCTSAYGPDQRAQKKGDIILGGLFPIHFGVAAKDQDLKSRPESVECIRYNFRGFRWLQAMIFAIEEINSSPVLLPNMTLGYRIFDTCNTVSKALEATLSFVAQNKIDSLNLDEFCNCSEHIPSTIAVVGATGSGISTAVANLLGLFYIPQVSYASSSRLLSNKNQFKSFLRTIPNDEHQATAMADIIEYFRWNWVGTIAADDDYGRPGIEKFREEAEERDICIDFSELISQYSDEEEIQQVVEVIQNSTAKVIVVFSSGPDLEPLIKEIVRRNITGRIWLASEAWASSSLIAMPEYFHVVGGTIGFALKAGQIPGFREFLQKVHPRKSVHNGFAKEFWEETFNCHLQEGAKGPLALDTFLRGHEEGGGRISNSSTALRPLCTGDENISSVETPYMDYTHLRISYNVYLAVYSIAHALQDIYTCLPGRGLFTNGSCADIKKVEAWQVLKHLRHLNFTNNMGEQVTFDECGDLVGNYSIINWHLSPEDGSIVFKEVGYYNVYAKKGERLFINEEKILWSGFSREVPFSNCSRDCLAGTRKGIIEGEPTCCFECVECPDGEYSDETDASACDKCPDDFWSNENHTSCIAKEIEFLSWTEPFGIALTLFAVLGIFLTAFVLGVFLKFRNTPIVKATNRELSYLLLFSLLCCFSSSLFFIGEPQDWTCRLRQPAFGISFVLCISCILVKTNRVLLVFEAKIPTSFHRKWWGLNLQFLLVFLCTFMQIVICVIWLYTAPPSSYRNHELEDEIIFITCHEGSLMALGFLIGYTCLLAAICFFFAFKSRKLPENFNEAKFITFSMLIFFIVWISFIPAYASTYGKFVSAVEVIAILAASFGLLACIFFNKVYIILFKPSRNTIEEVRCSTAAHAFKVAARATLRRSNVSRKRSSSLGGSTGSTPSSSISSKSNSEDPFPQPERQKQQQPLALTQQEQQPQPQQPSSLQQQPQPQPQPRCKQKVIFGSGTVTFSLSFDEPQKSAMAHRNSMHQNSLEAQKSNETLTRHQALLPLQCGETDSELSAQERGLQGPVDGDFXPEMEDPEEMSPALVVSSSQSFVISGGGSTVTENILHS
Description: The cCaSR expression constructs were stably-transfected in the mammalian cell line, HEK293/ T-REx/ natClytin. Transfections were performed by electroporation, following standard methodologies. Stably-transfected target and mock pools were obtained after 2–3 weeks of antibiotic selection, and clones were selected for testing. In order to evaluate the activity of each clone, 10 mM Calcium was injected onto the cells and the resulting luminescence was measured.
All compounds screened on the receptor were analysed in parallel with Calcium, on the HEK293/ T-REx/ natClytin-cCaSR or hCaSR stable or transient cell lines. Prior to the measurements, the cells were incubated with 10 µM of photoprotein substrate, Coelenterazine, prepared in Calcium-free Tyrode’s buffer at 37 °C for 3–4 h. All the data was captured using a FLIPR Tetra (Molecular Devices). A single or double injection protocol was used to capture the data for potential agonists and PAMs, respectively. The compounds tested were all prepared at desired concentration in Calcium-Free Tyrode’s buffer supplemented with 0.5% DMSO. For the activity determination of potential agonists, the single injection protocol was used, with CaCl2 as the positive control for each run. Each compound was injected into specific wells and the luminescence signal was measured for 1 min. for each compound. For potential PAMs, the double injection protocol was used. The first injection was identical to the one described above for potential agonists. A 20 min. resting period followed the first injection and a second injection of 0.5 mM CaCl2 in Calcium-free Tyrode’s buffer was injected to all wells, and the resulting luminescence signal was again measured for 1 min for each compound.
Dose–response curves were established by plotting signal amplitudes versus agonist concentration. For each compound, the % of maximum response was determined using a standard formula as follows:
The half maximal effective concentrations (EC50) were identified by nonlinear regression using a variable slope model with the equation Y = Bottom + (X^Hillslope)*(Top–Bottom)/ (X^HillSlope + EC50^HillSlope), where Y is the agonist concentration, Top and Bottom are the plateaus in the same units as Y and HillSlope is the Slope factor or Hill slope. […] In these cases the EC50 was noted as being higher than the maximum concentration used in the assay.

[2] = biological target: T1, cCaSR; test: cCaSR PAM luminescence assay, double injection with 0.5 mM CaCl2, HEK293/T-REx/natClytin-cCaSR
[3] = Supplementary Table I, agonist assay, dash = no activity
[4] = Supplementary Table I, PAM assay, dash = no activity
[5] = read-out: EC50 PAM, Supplementary Table I, positive allosteric modulator, presence of Ca2+

Row | Compound | EC50 Ago (M) [1, 3] | EC50 PAM (M) [2, 4] | also measured
1 | CC(C)C1NC(C(=O)O)Cc2c1[nH]c1ccccc21 (stereo not shown) [1-isopropyl-2,3,4,9-tetrahydro-1H-pyrido[3,4-b]indole-3-carboxylic acid] | - | - | 
2 | N[C@]1(C(=O)O)C[C@H](C(=O)O)C1 [1s,3s-1-aminocyclobutane-1,3-dicarboxylic acid] |  | - | 
3 | NC(CCCC(N)C(=O)O)C(=O)O (stereo not shown) [2,6-Diaminopimelic acid] | - | - | 
4 | NC(CCCCCCCCCC(=O)O)C(=O)O (stereo not shown) [2-aminododecanedioic acid] | - | - | 
5 | COc1c(C)cc(C(=O)CC#N)cc1C [3,5-Dimethyl-4-methoxybenzoylacetonitrile] | - | - | 
6 | CO[C@H]1[C@H](O)[C@@H](CO)OC(O)[C@@H]1O (stereo partly drawn) [3-O-Methyl-D-glucopyranose] | - | - | 
7 | O=C(O)c1cc2c(cn1)[nH]c1ccccc12 [9H-pyrido[3,4-b]indole-3-carboxylic acid] | - | - | 
8 | CC(C)[C@H](N)P(=O)(O)O [(1R)-(+)-(1-Amino-2-methylpropyl)phosphonic acid] |  |  | EC50 Ago (M) [1]: -; EC50 PAM (M) [2]: -
9 | C[C@](N)(CC(=O)O)C(=O)O [(S)-a-Methylaspartic acid, (S)-α-Methylaspartic acid] | - | - | 
10 | Cc1ccc(C(C)(O)c2nc3ccccc3s2)c(C)c1 (stereo not shown) [AC-265347, reference compound] | - |  | 
11 | O.O.[Ba+2].[Cl-].[Cl-] [Ba^2+, Barium chloride dihydrate] |  |  | EC50 PAM (M) [2]: -
12 | [Ba+2].[Cl-].[Cl-] [Ba^2+, Barium chloride dihydrate] |  |  | EC50 [1]: 1170 µM; EC50 ([1]; read-out: EC50 Ago): 1170 µM; EC50 ([1]; read-out: cCaSR activity): 1000 to 10000 µM
13 | NCCCCCN [Cadaverine] | - | - | 
14 | C[C@@H](N[C@H]1CCCC[C@@H]1NC(=O)c1ccc(Cl)cc1)c1cccc2ccccc12 [Calhex 231, reference compound] | - | - | 
15 | C[C@@H](NCc1cc2ccccc2[nH]1)c1cccc2ccccc12 [Calindol, reference compound] | - |  | 
16 | O=C([O-])[O-].O=C([O-])[O-].O=C([O-])[O-].[Ce+3].[Ce+3] [Cerium(III) carbonate] | - | - | 
17 | C[C@@H](NCCCc1cccc(C(F)(F)F)c1)c1cccc2ccccc12 [Cinacalcet, reference compound] | - |  | EC50 [2]: 0.746 µM
18 | N[C@@H](CSSC[C@H](N)C(=O)O)C(=O)O [Cystine (disufide)] | - | - | 
19 | OC[C@H]1OC(O)[C@H](O)[C@@H](O)[C@@H]1O (stereo partly drawn) [D-( +)-Glucose, D-(+)-Glucose] | - | - | 
20 | NC(N)=NCCC[C@@H](N)C(=O)O [D-Arginine] | - | - | 
21 | N[C@H](CC(=O)O)C(=O)O [D-Aspartic Acid] | - | - | 
22 | N[C@H](CCC(=O)O)C(=O)O [D-Glutamic acid] | - | - | 
23 | NCCCC[C@@H](N)C(=O)O [D-Lysine] | - | - | 

Row | Compound | EC50 Ago (M) [1, 3] | EC50 PAM (M) [2, 4] | also measured
24 | O=P(O)(O)C(Cl)(Cl)P(=O)(O)O [Dichloromethylenediphosphonic acid] | - | - | 
25 | COc1cc(C(O)(c2nc3ccccc3s2)C(F)(F)F)c(OC)cc1N (stereo not shown) [Enamine Screening - Z317045236] | - |  | EC50 [2, 5]: 2.42 µM
26 | CC(=O)N1C=Cc2ccccc2C1CC(=O)NC(C)c1cccc(Br)c1 (stereo not shown) [Enamine Screening - Z336933272] | - |  | EC50 [2, 5]: 12.1 µM
27 | COC(=O)C(NC1CCc2c(F)cccc21)c1cccc(C#N)c1 (stereo not shown) [Enamine Screening - Z1362199910] | - |  | EC50 [2, 5]: 58.9 µM
28 | CC(NC1CCc2c(F)cc(Br)cc21)c1ccncc1 (stereo not shown) [Enamine Screening - Z1436888168] | - |  | EC50 [2, 5]: 45.7 µM
29 | CC(NCC1Cc2ccccc2O1)c1ccc2ccccc2n1 (stereo not shown) [Enamine Screening - Z1437387381] | - |  | EC50 [2, 5]: 9.01 µM
30 | CC(NCC1CCCN(C)C1c1cccs1)c1cc(Cl)c(N)c(Cl)c1 (stereo not shown) [Enamine Screening - Z1532507755] | - |  | EC50 [2, 5]: 8.68 µM
31 | COc1ccc(C2C(CNC(C)c3ccncc3)CCN2C)cc1 (stereo not shown) [Enamine Screening - Z1563602968] | - | - | 
32 | OCC(CNC1CCCOc2cc(Cl)ccc21)Cc1ccccn1 (stereo not shown) [Enamine Screening - Z1589915397] | - |  | EC50 [2, 5]: 122 µM
33 | Cc1ccc(C(C)NC(C)c2cc3ccccc3[nH]2)cc1C (stereo not shown) [Enamine Screening - Z1592615858] | - |  | EC50 [2, 5]: 1.92 µM
34 | c1ccc(C2CCN(C3CCCc4ccccc43)C2)cc1 (stereo not shown) [Enamine Screening - Z1627256025] | - |  | EC50 [2, 5]: 797 µM
35 | COc1ccc(CCC(C)NC2CCOc3ccccc32)cc1O (stereo not shown) [Enamine Screening - Z1857407854] | - |  | EC50 [2, 5]: 5.5 µM
36 | [Gd+3] [Gd^3+, Gadolinium ion Gd^3+] |  | - | EC50 ([1]; agonist assay, stable inducible cCaSR line, > 0.01 M = maximal response not reached): 295 µM; EC50 ([1]; read-out: EC50 Ago, Supplementary Table I, agonist assay, > 0.01 M = maximal response not reached): 295 µM; EC50 ([1]; read-out: cCaSR activity, agonist assay, stable inducible cCaSR line, at least three wells): < 1000 µM
37 | NCC(=O)O [Glycine] | - | - | 
38 | C1N2CN3CN1CN(C2)C3 [Hexamethylenetetramine] | - | - | 
39 | O=C(O)[C@@H]1C[C@@H](O)CN1 [Hydroxyproline] | - | - | 
40 | CN[C@H]1C[C@@H](N)[C@H](O)[C@@H](O[C@@H]2O[C@H](CO)[C@H](O)[C@@H]3OC4(O[C@H]23)O[C@H]([C@@H](N)CO)[C@H](O)[C@H](O)[C@H]4O)[C@@H]1O (stereo partly shown) [Hygromycin B, reference compound] | - | - | 
41 | NC[C@@H]1O[C@H](O[C@H]2[C@@H](O)[C@H](O[C@@H]3[C@@H](O)[C@H](N)C[C@H](N)[C@H]3O[C@H]3O[C@H](CN)[C@@H](O)[C@H](O)[C@H]3N)O[C@@H]2CO)[C@H](N)[C@@H](O)[C@@H]1O [Neomycin, reference compound] |  | - | 
42 | C[C@@H](O)C(=O)SC[C@H](NC(=O)CC[C@H](N)C(=O)O)C(=O)NCC(=O)O [S-Lactoylglutathione] |  | - | 
43 | NCCNCCNCCN [Triethylenetetramine] |  |  | EC50 Ago (M) [1]: -
44 | NC(=O)CC[C@H](NC(=O)[C@H](CCC(=O)O)NC(=O)CC[C@H](N)C(=O)O)C(=O)O [γ-Glu-Glu-Gln] |  | - | 
45 | N[C@@H](CCC(=O)N[C@@H](CCC(=O)O)C(=O)N[C@@H](CCC(=O)O)C(=O)O)C(=O)O [γ-Glu-Glu-Glu] |  | - | 
46 | Poly-L-ornithine |  | - | 

— article PMC8131363 (Scientific Reports, 2021)
